Earlier results as cited in patent US4305927A, “Method for the management of intraocular pressure” (ALZA Corporation, priority 1980, dated 1981).

Tested on: carbonic anhydrase

CC(=O)Nc1nnc(S(N)(=O)=O)s1 [acetazolamide, 5-acetamido-1,3,4-thiadiazole-2-sulfonamide]
action on carbonic anhydrase: enzyme inhibitor that acts on carbonic anhydrase
